Measurements: US11197871B2, “Methods and materials for treating calcific aortic valve stenosis” (Mayo Foundation for Medical Education and Research, priority 2012, dated 2021)
Entries after “also recorded” stand apart in the source; their conditions may differ.

Key:
[1] = system: aortic valve interstitial cells; assay: BMP2-treated aortic valve interstitial cells with or without Ataciguat for 24 hours (pVASP239, Sp7); assay type: cell-based; details: in vitro
Description: Overexpression of DDAH1 reduces endogenous inhibitors of NOS, increases NO production, and increases sGC signaling, ultimately resulting in slower progression of CAVS.
To determine whether induction of sGC signaling reduced osteogenic signaling in vitro, aortic valve interstitial cells were treated with BMP2 in the presence or absence of Ataciguat (HMR1766, 5-Chloro-2-[[(5-chloro-2-thienyl)sulfonyl]amino]-N-[4-(4-morpholinylsulfonyl)phenyl]benzamide) for 24 hours.

[2] = system: aortic valve interstitial cells; assay: Western blotting of BMP, TGFβ and sGC signaling in valve interstitial cells treated with BMP2, TGFβ1 or vehicle, with or without Ataciguat, for 18 hours; assay type: cell-based, human and mouse; details: Ataciguat 1 μmol, 37° C.
Description: FIG. 4 is a graph plotting p-VASP^239 levels detected in aortic valve interstitial cells treated with BMP2 (100 ng/mL), TGFβ1 (10 ng/mL), or neither (control; CTRL) in the presence or absence of Ataciguat (1 μmol) for 18 hours at 37° C.
FIG. 5 is a graph plotting p-Smad1/5/8 levels detected in aortic valve interstitial cells treated with BMP2 (100 ng/mL), TGFβ1 (10 ng/mL), or neither (control; CTRL) in the presence or absence of Ataciguat (1 μmol) for 18 hours at 37° C.
FIG. 6 is a graph plotting Sp7 levels detected in aortic valve interstitial cells treated with BMP2 […], or neither (control; CTRL) in the presence or absence of Ataciguat (1 μmol) for 18 hours at 37° C.
FIG. 7 is a graph plotting p-Smad2 levels detected in aortic valve interstitial cells treated with BMP2 […], or neither (control; CTRL) in the presence or absence of Ataciguat (1 μmol) for 18 hours at 37° C.
Additional experiments were performed to confirm that Ataciguat activates sGC signaling, attenuates BMP2 signaling, attenuates BMP2 target induction, and attenuates fibrogenic signaling in valve interstitial cells. In brief, cells were maintained in Dulbecco's Modified Eagle's Medium (DMEM) with 20% fetal bovine serum (FBS) and expanded to confluence in 6 well plates in a standard 5% CO2 incubator at 37° C. Cells were then treated with BMP2 (100 ng/mL), TGFβ1 (10 ng/mL), or vehicle (phosphate buffered saline) in the absence or presence of Ataciguat (1 μmol) for 18 hours. Cells were lysed using standard protein lysis buffer containing protease and phosphatase inhibitors, and Western blotting was performed to evaluate changes in protein levels of BMP, TGFβ, and sGC signaling.

Q: Which results are given for `O=C(Nc1ccc(S(=O)(=O)N2CCOCC2)cc1)c1cc(Cl)ccc1NS(=O)(=O)c1ccc(Cl)s1` [Ataciguat, 5-Chloro-2-[[(5-chloro-2-thienyl)sulfonyl]amino]-N-[4-(4-morpholinylsulfonyl)phenyl]benzamide]?
A: sGC signaling (indicated by pVASP239 levels) ([1]; FIG. 2A): activated sGC signaling; osteogenic signaling (BMP2-induced Sp7 expression) ([1]; FIG. 2B): profoundly suppressed osteogenic signaling; sGC signaling (p-VASP239 levels) ([2]; BMP2 100 ng/mL, TGFβ1 10 ng/mL or control, FIG. 4, replicated in human (HAV-001, HAV-002, HAV-003) and mouse (MAV1, MAV2, MAV4) cell lines): effectively activated sGC signaling; BMP2 signaling (p-Smad1/5/8 levels) ([2]; BMP2 100 ng/mL, TGFβ1 10 ng/mL or control, FIG. 5, replicated in human and mouse cell lines): attenuated canonical BMP2 signaling; BMP2 target induction (Sp7 levels) ([2]; BMP2, TGFβ1 or control, FIG. 6, replicated in human and mouse cell lines): attenuated BMP target induction; also recorded: attenuated BMP2 target induction; fibrogenic signaling (p-Smad2 levels) ([2]; BMP2, TGFβ1 or control, FIG. 7, replicated in human and mouse cell lines): partially attenuated fibrogenic signaling
